This is an account of results in PMC8691714 (Cancer Research Communications, 2021).

Details of series [1]: method as in earlier work. The following applies: PBPK model parameter, ref [17, 18] and Drugbank, cited from earlier work.
Another series has as its system Caco-2. Also on record: method as in earlier work. The following applies: PBPK model parameter; ref [17, 18] and Drugbank; cited from earlier work.
For a further series, the system named is TMD8 cells. Description: MTT viability assay, TMD8 cells, 72 hours. The format is cell-based, human. The following applies: Homo sapiens, TMD8, 72 h, MTT. Here is the method: Cell viability was assessed after 72 hours of incubation.
A further series concerns the target T1, OCT3 (Homo sapiens, UniProt O75751).
T1 construct: expressed in transfected cells; compared with empty vector control
T1 sequence (O75751 1-556): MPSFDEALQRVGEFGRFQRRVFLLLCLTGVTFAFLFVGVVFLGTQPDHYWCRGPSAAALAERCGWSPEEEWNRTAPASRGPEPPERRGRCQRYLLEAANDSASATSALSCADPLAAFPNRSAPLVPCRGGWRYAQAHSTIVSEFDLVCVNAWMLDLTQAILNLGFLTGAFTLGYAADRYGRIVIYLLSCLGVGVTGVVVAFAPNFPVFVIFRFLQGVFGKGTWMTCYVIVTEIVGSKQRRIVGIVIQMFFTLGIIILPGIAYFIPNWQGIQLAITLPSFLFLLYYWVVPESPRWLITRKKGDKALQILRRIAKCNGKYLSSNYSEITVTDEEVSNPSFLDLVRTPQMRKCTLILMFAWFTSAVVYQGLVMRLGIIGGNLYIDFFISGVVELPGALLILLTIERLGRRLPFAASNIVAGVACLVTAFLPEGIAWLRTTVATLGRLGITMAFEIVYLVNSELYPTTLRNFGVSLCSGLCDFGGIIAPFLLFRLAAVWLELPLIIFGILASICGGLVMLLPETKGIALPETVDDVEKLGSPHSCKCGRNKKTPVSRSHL
Description: In vitro transport assay, cells overexpressing OCT3. The format is cell-based. The following applies: OCT3 vs empty vector; 15 minutes.

Series [2] in a line: Cardiac distribution of ibrutinib in mice (heart-to-plasma ratio). The following applies: female wild-type mice; six hours after ibrutinib 10 mg/kg orally; cobicistat 30 mg/kg pretreatment vs vehicle; P < 0.01.
The conditions of series [3]: cited from earlier work.

With `Nc1ncnc2c1c(-c1ccc(Oc3ccccc3)cc1)nn2[C@@H]1CCCN(C(=O)C(O)CO)C1` (stereo partly shown) [PCI-45227], in series [1] (oral clearance), the Clpo entry is given as “Clpo (L/h) : 433”. In addition, the Vss in series [1] (steady-state volume of distribution) is 9.0 L/kg.
Take `C=CC(=O)N1CCC[C@@H](n2nc(-c3ccc(Oc4ccccc4)cc3)c3c(N)ncnc32)C1` [Ibrutinib]: the Caco-2 in the series with Caco-2 is 32.6 ×10⁻⁶ cm/s. Also, the concentration for half-maximal inhibition (IC50) was found to be 1.4 nM in the series on TMD8 cells (None (Fig. 2A, ketoconazole panel)); 1.4 nM in the series on TMD8 cells (None (Fig. 2B, cobicistat panel)); 1.3 nM with TMD8 cells (with 0.1 μmol/L cobi); 1.1 nM in the series with TMD8 cells (with 0.1 μmol/L keto); 1.1 nM with TMD8 cells (with 1 μmol/L cobi); 1 nM in the series on TMD8 cells (with 1 μmol/L keto). Further, the IC50 in the series on TMD8 cells (with 10 μmol/L cobi) was 0.82 nM; in the series on TMD8 cells (with 10 μmol/L keto), 0.88 nM. Besides, on OCT3, the “uptake of ibrutinib by transporter-overexpressing cells” value is “not substantially facilitated”. In addition, the “heart levels of ibrutinib normalized to plasma levels” value in series [2] was “substantially lower levels”. Further, the “experimentally observed increase in ibrutinib exposure” value in series [3] (itraconazole-ibrutinib interaction, ref [8]) was 10 fold. For the same compound, the “increase in ibrutinib exposure predicted from a pharmacokinetic model” value in series [3] (itraconazole-ibrutinib interaction, ref [23]) is recorded as 21 fold. In addition, the oral bioavailability in series [3] (patients, ref [4, 5]) is recorded as < 3%.

As a reminder, the Vss is the apparent volume that relates the amount in the body to the concentration in plasma or blood. In general, IC50 refers to the point on the concentration scale where inhibition reaches its midpoint.
